Test results: US12471596B2 (priority 2019, dated 2025)

tested on: Phytophthora infestans; assay: microbe, parasite or virus in culture; assay type: cell-based; settings: in Secale cereale, 168 h, read-out: control compared to the untreated check

Compound | inhibition of growth at 30 ppm [%]
COc1cncnc1OCC(=O)N1CCC(c2nc(C3=NOC(c4c(Cl)ccc(F)c4F)C3)cs2)CC1 (stereo not shown) [Compound 81, 1-(4-(4-(5-(6-chloro-2,3-difluorophenyl)-4,5-dihydroisoxazol-3-yl)thiazol-2-yl)piperidin-1-yl)-2-((5-methoxypyrimidin-4-yl)oxy)ethan-1-one] | ≥ 70
COc1ccnc(OCC(=O)N2CCC(c3nc(C4=NOC(c5c(Cl)cccc5C(F)(F)F)C4)cs3)CC2)n1 (stereo not shown) [Compound 82, 1-(4-(4-(5-(2-chloro-6-(trifluoromethyl)phenyl)-4,5-dihydroisoxazol-3-yl)thiazol-2-yl)piperidin-1-yl)-2-((4-methoxypyrimidin-2-yl)oxy)ethan-1-one] | ≥ 70
COc1ccnc(OCC(=O)N2CCC(c3nc(C4=NOC(c5c(O)cccc5Cl)C4)cs3)CC2)n1 (stereo not shown) [Compound 83, 1-(4-(4-(5-(2-chloro-6-hydroxyphenyl)-4,5-dihydroisoxazol-3-yl)thiazol-2-yl)piperidin-1-yl)-2-((4-methoxypyrimidin-2-yl)oxy)ethan-1-one] | ≥ 70
O=C(COc1nccc(C(F)(F)F)n1)N1CCC(c2nc(C3=NOC(c4c(Cl)cccc4C(F)(F)F)C3)cs2)CC1 (stereo not shown) [Compound 84, 1-(4-(4-(5-(2-chloro-6-(trifluoromethyl)phenyl)-4,5-dihydroisoxazol-3-yl)thiazol-2-yl)piperidin-1-yl)-2-((4-(trifluoromethyl)pyrimidin-2-yl)oxy)ethan-1-one] | ≥ 70
O=C(COc1nccc(C(F)(F)F)n1)N1CCC(c2nc(C3=NOC(c4c(O)cccc4Cl)C3)cs2)CC1 (stereo not shown) [Compound 85, 1-(4-(4-(5-(2-chloro-6-hydroxyphenyl)-4,5-dihydroisoxazol-3-yl)thiazol-2-yl)piperidin-1-yl)-2-((4-(trifluoromethyl)pyrimidin-2-yl)oxy)ethan-1-one] | ≥ 70
O=C(COc1cnc(C(F)(F)F)cn1)N1CCC(c2nc(C3=NOC(c4c(Cl)cccc4Cl)C3)cs2)CC1 (stereo not shown) [Compound 88, 1-(4-(4-(5-(2,6-dichlorophenyl)-4,5-dihydroisoxazol-3-yl)thiazol-2-yl)piperidin-1-yl)-2-((5-(trifluoromethyl)pyrazin-2-yl)oxy)ethan-1-one] | ≥ 70
N#Cc1cccc(Cl)c1C1CC(c2csc(C3CCN(C(=O)COc4cnc(C(F)(F)F)cn4)CC3)n2)=NO1 (stereo not shown) [Compound 93, 3-chloro-2-(3-(2-(1-(2-((5-(trifluoromethyl)pyrazin-2-yl)oxy)acetyl)piperidin-4-yl)thiazol-4-yl)-4,5-dihydroisoxazol-5-yl)benzonitrile] | ≥ 70
N#Cc1nccc(OCC(=O)N2CCC(c3nc(C4=NOC(c5c(O)cccc5Cl)C4)cs3)CC2)n1 (stereo not shown) [Compound 95, 4-(2-(4-(4-(5-(2-chloro-6-hydroxyphenyl)-4,5-dihydroisoxazol-3-yl)thiazol-2-yl)piperidin-1-yl)-2-oxoethoxy)pyrimidine-2-carbonitrile] | ≥ 70
COc1nccnc1OCC(=O)N1CCC(c2csc(C3=NOC(c4c(F)cccc4Cl)C3)n2)CC1 (stereo not shown) [Compound 97, 1-(4-(2-(5-(2-chloro-6-fluorophenyl)-4,5-dihydroisoxazol-3-yl)thiazol-4-yl)piperidin-1-yl)-2-((3-methoxypyrazin-2-yl)oxy)ethan-1-one] | ≥ 70
COc1nc(OC)nc(OCC(=O)N2CCC(c3nc(C4=NOC(c5c(F)cccc5Cl)C4)cs3)CC2)n1 (stereo not shown) [Compound 98, 1-(4-(4-(5-(2-chloro-6-fluorophenyl)-4,5-dihydroisoxazol-3-yl)thiazol-2-yl)piperidin-1-yl)-2-((4,6-dimethoxy-1,3,5-triazin-2-yl)oxy)ethan-1-one] | ≥ 70
COc1cncc(OCC(=O)N2CCC(c3nc(C4=NOC(c5c(Cl)cccc5Cl)C4)cs3)CC2)n1 (stereo not shown) [Compound 99, 1-(4-(4-(5-(2,6-dichlorophenyl)-4,5-dihydroisoxazol-3-yl)thiazol-2-yl)piperidin-1-yl)-2-((6-methoxypyrazin-2-yl)oxy)ethan-1-one] | ≥ 70
COc1cncc(OCC(=O)N2CCC(c3nc(C4=NOC(c5c(Cl)cccc5C#N)C4)cs3)CC2)n1 (stereo not shown) [Compound 100, 3-chloro-2-(3-(2-(1-(2-((6-methoxypyrazin-2-yl)oxy)acetyl)piperidin-4-yl)thiazol-4-yl)-4,5-dihydroisoxazol-5-yl)benzonitrile] | ≥ 70
COc1cncc(OCC(=O)N2CCC(c3nc(C4=NOC(c5c(F)cccc5Cl)C4)cs3)CC2)n1 (stereo not shown) [Compound 101, 1-(4-(4-(5-(2-chloro-6-fluorophenyl)-4,5-dihydroisoxazol-3-yl)thiazol-2-yl)piperidin-1-yl)-2-((6-methoxypyrazin-2-yl)oxy)ethan-1-one] | ≥ 70
COc1cncc(OCC(=O)N2CCC(c3nc(C4=NOC(c5c(Cl)cccc5C(F)(F)F)C4)cs3)CC2)n1 (stereo not shown) [Compound 102, 1-(4-(4-(5-(2-chloro-6-(trifluoromethyl)phenyl)-4,5-dihydroisoxazol-3-yl)thiazol-2-yl)piperidin-1-yl)-2-((6-methoxypyrazin-2-yl)oxy)ethan-1-one] | ≥ 70
COc1cncc(OCC(=O)N2CCC(c3nc(C4=NOC(c5c(Cl)cccc5OS(C)(=O)=O)C4)cs3)CC2)n1 (stereo not shown) [Compound 103, 3-chloro-2-(3-(2-(1-(2-((6-methoxypyrazin-2-yl)oxy)acetyl)piperidin-4-yl)thiazol-4-yl)-4,5-dihydroisoxazol-5-yl)phenyl methanesulfonate] | ≥ 70
COc1cncc(OCC(=O)N2CCC(c3nc(C4=NOC(c5c(Cl)ccc(F)c5F)C4)cs3)CC2)n1 (stereo not shown) [Compound 104, 1-(4-(4-(5-(6-chloro-2,3-difluorophenyl)-4,5-dihydroisoxazol-3-yl)thiazol-2-yl)piperidin-1-yl)-2-((6-methoxypyrazin-2-yl)oxy)ethan-1-one] | ≥ 70
COc1nc(OC)nc(OCC(=O)N2CCC(c3nc(C4=NOC(c5c(Cl)cccc5C(F)(F)F)C4)cs3)CC2)n1 (stereo not shown) [Compound 105, 1-(4-(4-(5-(2-chloro-6-(trifluoromethyl)phenyl)-4,5-dihydroisoxazol-3-yl)thiazol-2-yl)piperidin-1-yl)-2-((4,6-dimethoxy-1,3,5-triazin-2-yl)oxy)ethan-1-one] | ≥ 70
COc1nc(OC)nc(OCC(=O)N2CCC(c3nc(C4=NOC(c5c(Cl)cccc5Cl)C4)cs3)CC2)n1 (stereo not shown) [Compound 106, 1-(4-(4-(5-(2,6-dichlorophenyl)-4,5-dihydroisoxazol-3-yl)thiazol-2-yl)piperidin-1-yl)-2-((4,6-dimethoxy-1,3,5-triazin-2-yl)oxy)ethan-1-one] | ≥ 70
COc1nc(OC)nc(OCC(=O)N2CCC(c3nc(C4=NOC(c5c(Cl)cccc5OS(C)(=O)=O)C4)cs3)CC2)n1 (stereo not shown) [Compound 107, 3-chloro-2-(3-(2-(1-(2-((4,6-dimethoxy-1,3,5-triazin-2-yl)oxy)acetyl)piperidin-4-yl)thiazol-4-yl)-4,5-dihydroisoxazol-5-yl)phenyl methanesulfonate] | ≥ 70
COc1nc(OC)nc(OCC(=O)N2CCC(c3nc(C4=NOC(c5c(F)cccc5F)C4)cs3)CC2)n1 (stereo not shown) [Compound 109, 1-(4-(4-(5-(2,6-difluorophenyl)-4,5-dihydroisoxazol-3-yl)thiazol-2-yl)piperidin-1-yl)-2-((4,6-dimethoxy-1,3,5-triazin-2-yl)oxy)ethan-1-one] | ≥ 70
O=C(COc1nccnc1Cl)N1CCC(c2nc(C3=NOC(c4c(Cl)ccc(F)c4F)C3)cs2)CC1 (stereo not shown) [Compound 111, 1-(4-(4-(5-(6-chloro-2,3-difluorophenyl)-4,5-dihydroisoxazol-3-yl)thiazol-2-yl)piperidin-1-yl)-2-((3-chloropyrazin-2-yl)oxy)ethan-1-one] | ≥ 70
N#Cc1ccnc(OCC(=O)N2CCC(c3nc(C4=NOC(c5c(F)cccc5Br)C4)cs3)CC2)n1 (stereo not shown) [Compound 117, 2-(2-(4-(4-(5-(2-bromo-6-fluorophenyl)-4,5-dihydroisoxazol-3-yl)thiazol-2-yl)piperidin-1-yl)-2-oxoethoxy)pyrimidine-4-carbonitrile] | ≥ 70
COc1cncc(OCC(=O)N2CCC(c3nc(C4=NOC(c5c(F)cccc5F)C4)cs3)CC2)n1 (stereo not shown) [Compound 119, 1-(4-(4-(5-(2,6-difluorophenyl)-4,5-dihydroisoxazol-3-yl)thiazol-2-yl)piperidin-1-yl)-2-((6-methoxypyrazin-2-yl)oxy)ethan-1-one] | ≥ 70
COc1ncc(OCC(=O)N2CCC(c3nc(C4=NOC(c5c(Cl)cccc5OS(C)(=O)=O)C4)cs3)CC2)cn1 (stereo not shown) [Compound 130, 3-chloro-2-(3-(2-(1-(2-((2-methoxypyrimidin-5-yl)oxy)acetyl)piperidin-4-yl)thiazol-4-yl)-4,5-dihydroisoxazol-5-yl)phenyl methanesulfonate] | ≥ 70
COc1ncc(OCC(=O)N2CCC(c3nc(C4=NOC(c5c(F)cccc5Cl)C4)cs3)CC2)cn1 (stereo not shown) [Compound 132, 1-(4-(4-(5-(2-chloro-6-fluorophenyl)-4,5-dihydroisoxazol-3-yl)thiazol-2-yl)piperidin-1-yl)-2-((2-methoxypyrimidin-5-yl)oxy)ethan-1-one] | ≥ 70
COc1ncc(OCC(=O)N2CCC(c3nc(C4=NOC(c5c(Cl)cc(Cl)cc5Cl)C4)cs3)CC2)cn1 (stereo not shown) [Compound 133, 2-((2-methoxypyrimidin-5-yl)oxy)-1-(4-(4-(5-(2,4,6-trichlorophenyl)-4,5-dihydroisoxazol-3-yl)thiazol-2-yl)piperidin-1-yl)ethan-1-one] | ≥ 70
COc1ncc(OCC(=O)N2CCC(c3nc(C4=NOC(c5c(F)cccc5Br)C4)cs3)CC2)cn1 (stereo not shown) [Compound 134, 1-(4-(4-(5-(2-bromo-6-fluorophenyl)-4,5-dihydroisoxazol-3-yl)thiazol-2-yl)piperidin-1-yl)-2-((2-methoxypyrimidin-5-yl)oxy)ethan-1-one] | ≥ 70
COc1ncc(OCC(=O)N2CCC(c3nc(C4=NOC(c5cc(Cl)ccc5Cl)C4)cs3)CC2)cn1 (stereo not shown) [Compound 135, 1-(4-(4-(5-(2,5-dichlorophenyl)-4,5-dihydroisoxazol-3-yl)thiazol-2-yl)piperidin-1-yl)-2-((2-methoxypyrimidin-5-yl)oxy)ethan-1-one] | ≥ 70
